Laboratory results: patent US20100234349A1, “PHARMACEUTICAL COMBINATIONS OF A NICOTINE RECEPTOR MODULATOR AND A COGNITIVE ENHANCER” (priority 2006, published 2010)
“Also recorded” adds a separate entry of the source.

System: mouse
Experiment: mouse marble burying paradigm
Type: in vivo
Procedure: FIGS. 3A-3D show mouse marble burying 15 minutes after s.c. dosing of 1-(3-Pyridyl)-homopiperazine (Compound 1F of WO 99/21834) as cognition enhancer, and 30 minutes after p.o. dosing of 3-(3-Pyridin-3-yl-[1,2,4]oxadiazol-5-yl)-benzonitrile (Compound 4.15) as positive allosteric modulator: […]

SMILES | ED50 (Mus musculus, sc, 0.25 h, read-out: ED50, mouse marble burying) | effect in mouse marble burying, positive allosteric modulator alone (alone, dosed p.o. at 3 and 10 mg/kg, 30 minutes after dosing (FIG. 3A))
c1cncc(N2CCCNCC2)c1 [Compound 1F of WO 99/21834, 1-(3-Pyridyl)-homopiperazine, reference compound] | 0.56 mg/kg | –
N#Cc1cccc(-c2nc(-c3cccnc3)no2)c1 [Compound 4.15, 3-(3-Pyridin-3-yl-[1,2,4]oxadiazol-5-yl)-benzonitrile] | – | no effect; also recorded: inactive
